In US20250092065A1, “2-(INDAZOL-5-YL)-6-(PIPERIDIN-4-YL)-1,7-NAPHTHYRIDINE DERIVATIVES AND RELATED COMPOUNDS AS MODULATORS FOR SPLICING NUCLEIC ACIDS AND FOR THE TREATMENT OF PROLIFERATIVE DISEASES” (REMIX THERAPEUTICS INC., priority 2022, published 2025):
Where a name gives a salt, the structure may show the parent alone. Read-outs that look alike come from different tables or passages of the source.

What was measured:
K562 cells = assay: Cell Titer Glo 2.0 cell viability (toxicity) assay, K562; conditions: 500 cells/well, 72 hours
MYB mRNA = assay: RT-qPCR splicing assay, MYB mRNA canonical (CJ) and alternative (AJ) junction; assay type: cell-based, human; conditions: Homo sapiens; for AC50: MYB alternative junction mRNA, read-out: MYB AJ (increase in AJ mRNA, AC50)
Outline: (§1)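 Splice switching quantified in compound-treated A673/K562 cells after 24 h exposure (top dose 10 uM, 3-fold steps, ≤0.25% DMSO), using CJ and AJ qPCR assays run at least in duplicate. RQ derived by 2^(−ΔΔCt), then percentage response.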

Target C = assay: RT-qPCR canonical junction panel assay, Target C mRNA; assay type: cell-based; conditions: Table 4, read-out: Target C IC50 (decrease in CJ mRNA levels)
Outline: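 A673 or K562 cells treated with compound; CJ mRNA quantified by junction-spanning RT-qPCR probe after cDNA synthesis, normalised to GAPDH, GUSB or PPIA and DMSO (2^−ΔΔCt), scaled to set ΔCt assay window; IC50 from 4-parameter fit of CJ decrease.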

HTT mRNA = assay: RT-qPCR splicing assay, HTT mRNA canonical (CJ) and alternative (AJ) junction; assay type: cell-based, human; conditions: Homo sapiens; for AC50: HTT alternative junction mRNA, read-out: HTT AJ (increase in AJ mRNA, AC50)
Outline: as §1

SMN2 mRNA = assay: RT-qPCR splicing assay, SMN2 mRNA; assay type: cell-based, human; conditions: Homo sapiens, canonical junction qPCR panel, Table 4; read-out: SMN2 IC50 (decrease in CJ mRNA levels)
Outline: as §1

[1] = MYB canonical junction mRNA, RT-qPCR, read-out: MYB CJ (decrease in CJ mRNA levels, IC50)
[2] = canonical junction qPCR panel, Table 4, read-out: MYB IC50 (decrease in CJ mRNA levels)
[3] = HTT canonical junction mRNA, RT-qPCR, read-out: HTT CJ (decrease in CJ mRNA levels, IC50)
[4] = canonical junction qPCR panel, Table 4, read-out: HTT IC50 (decrease in CJ mRNA levels)

SMILES | Effect of Exemplary Compounds on Cell Viability, K562 (K562 cells) | AC50 (MYB mRNA; RT-qPCR) [nM] | IC50 (MYB mRNA; [1]) [nM] | IC50 (MYB mRNA; [2]) [nM] | IC50 (Target C) [nM] | AC50 (HTT mRNA; RT-qPCR) [nM] | IC50 (HTT mRNA; [3]) [nM] | IC50 (HTT mRNA; [4]) [nM] | IC50 (SMN2 mRNA) [nM]
Cc1c(O)c(-c2ccc3nc(N4CC[C@H](NC5CC5)C4)ncc3n2)cc2cn(C)nc12 [Compound 439, 5-{2-[(3S)-3-(cyclopropylamino)pyrrolidin-1-yl]pyrido[3,2-d]pyrimidin-6-yl}-2,7-dimethylindazol-6-ol] | B (B represents 100-1000 nM) | 100 to 1000 | 100 to 1000 | 100 to 1000 | 100 to 1000 | < 100 | < 100 | < 100 | < 100
Cc1nc2c(C)c(O)c(-c3ccc4cc(N5CC[C@@H](NC6CC6)C5)ncc4n3)cc2o1 [Compound 440, 6-{6-[(3R)-3-(cyclopropylamino)pyrrolidin-1-yl]-1,7-naphthyridin-2-yl}-2,4-dimethyl-1,3-benzoxazol-5-ol] | B (B represents 100-1000 nM) | 100 to 1000 | 100 to 1000 | 100 to 1000 | 100 to 1000 | 100 to 1000 | < 100 | < 100 | < 100
Cc1nc2c(C)c(O)c(-c3ccc4cc(N5CC[C@H](NC6CC6)C5)ncc4n3)cc2o1 [Compound 441, 6-{6-[(3S)-3-(cyclopropylamino)pyrrolidin-1-yl]-1,7-naphthyridin-2-yl}-2,4-dimethyl-1,3-benzoxazol-5-ol] | B (B represents 100-1000 nM) | 100 to 1000 | 100 to 1000 | 100 to 1000 | 100 to 1000 | 100 to 1000 | < 100 | < 100 | < 100
Cn1cc2cc(-c3ccc4nc(C5CCNC6(CC6)C5)ncc4n3)c(O)cc2n1 (stereo not drawn) [Compound 448, 5-(2-{4-azaspiro[2.5]octan-7-yl}pyrido[3,2-d]pyrimidin-6-yl)-2-methylindazol-6-ol] | C (C represents 1000-9999 nM) | 1000 to 10000 | 100 to 1000 | 100 to 1000 | 1000 to 10000 | 1000 to 10000 | 100 to 1000 | 100 to 1000 | < 100
Cn1cc2cc(-c3ccc4cc(N5CCC(NC(C)(C)C)C5)ncc4n3)c(O)cc2n1 (stereo not drawn) [Compound 449, 5-{6-[3-(tert-butylamino)pyrrolidin-1-yl]-1,7-naphthyridin-2-yl}-2-methylindazol-6-ol] | B (B represents 100-1000 nM) | 100 to 1000 | 100 to 1000 | 100 to 1000 | 1000 to 10000 | 1000 to 10000 | 1000 to 10000 | 1000 to 10000 | < 100
Cc1nc2cc(O)c(-c3ccc4cc(N5CC[C@H](NC(C)(C)C)C5)ncc4n3)cc2o1 [Compound 450] | C (C represents 1000-9999 nM) | 1000 to 10000 | 1000 to 10000 | 1000 to 10000 | 1000 to 10000 | 1000 to 10000 | 1000 to 10000 | 1000 to 10000 | 1000 to 10000
Cc1c(O)c(-c2cc(Cl)c3cc(N4CCNCC4)cc(C)c3n2)cc2cn(C)nc12 [Compound 482, 5-[4-chloro-8-methyl-6-(piperazin-1-yl)577yrrolidi-2-yl]-2,7-dimethylindazol-6-ol hydrochloride] | A (A represents <100 nM) | < 100 | < 100 | < 100 | 1000 to 10000 | 100 to 1000 | < 100 | < 100 | < 100
Cc1cc2nc(-c3cc4cn(C)nc4c(C)c3O)cc(Cl)c2cc1N1CCNCC1 [Compound 484, 5-[4-chloro-7-methyl-6-(piperazin-1-yl)586yrrolidi-2-yl]-2,7-dimethylindazol-6-ol] | B (B represents 100-1000 nM) | 100 to 1000 | 100 to 1000 | 100 to 1000 | 1000 to 10000 | > 10000 | > 10000 | > 10000 | < 100
CNC1CCN(c2cc3c(Cl)cc(-c4cc5cn(C)nc5c(C)c4O)nc3cc2C)C1 (stereo not drawn) [Compound 486, 5-{4-chloro-7-methyl-6-[3-(methylamino)pyrrolidin-1-yl]quinolin-2-yl}-2,7-dimethylindazol-6-ol] | B (B represents 100-1000 nM) | 100 to 1000 | 100 to 1000 | 100 to 1000 | 1000 to 10000 | 1000 to 10000 | 1000 to 10000 | 1000 to 10000 | < 100
